Our source for the EC50 values is patent US8815909B2, “Diaminocyclohexane compounds and uses thereof” (Bristol-Myers Squibb Company, priority 2011, dated 2014).

Structures can show the parent of a compound that is named as a salt.

The target in the first test is T1, human Y4 receptor (Homo sapiens, UniProt P50391).
T1 construct: expressed in transfected cells
T1 sequence (P50391 whole entry): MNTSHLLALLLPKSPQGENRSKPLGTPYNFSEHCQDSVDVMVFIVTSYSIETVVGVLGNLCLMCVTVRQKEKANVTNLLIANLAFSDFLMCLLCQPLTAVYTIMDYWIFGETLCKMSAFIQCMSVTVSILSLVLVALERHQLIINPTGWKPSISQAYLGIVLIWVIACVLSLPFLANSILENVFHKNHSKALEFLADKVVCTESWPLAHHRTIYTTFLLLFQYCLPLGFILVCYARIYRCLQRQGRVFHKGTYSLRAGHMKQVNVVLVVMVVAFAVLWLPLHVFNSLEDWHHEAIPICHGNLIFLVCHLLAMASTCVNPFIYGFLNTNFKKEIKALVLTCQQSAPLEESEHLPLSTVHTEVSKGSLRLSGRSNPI
The test is described as follows: NPY4 cAMP HTRF Agonist Assay (inhibitory cAMP assay, Gi activation by Y4 agonism). Format: cell-based. Conditions: TABLE 2, R2 is Phenyl-CN; read-out: hY4 CAMP EC50. The method in brief: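 CHO cells stably expressing human Y4, 5000/well, exposed to compound with forskolin and IBMX in PBS for 30 min at room temperature. Gi-mediated inhibition of cAMP then measured by HTRF after 1 h with d2-conjugate and anti-cAMP cryptate.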
(In general: Time-resolved FRET reads energy transfer from a long-lived donor to a nearby acceptor.)
Turning to `CS(=O)(=O)NCc1cccc(-c2ccnc(N[C@@H]3CCCC[C@H]3N[C@H]3CCCN(c4ccc(C#N)cc4)C3)c2)c1` [Example 278], the EC50 was determined as 0.024 µM. For `CC(=O)c1ccccc1-c1ccnc(N[C@@H]2CCCC[C@H]2N[C@H]2CCCN(c3ccc(C#N)cc3)C2)c1` [Example 253], the half-maximal effective concentration (EC50) was 0.07 µM. Turning to `N#Cc1ccc(N2CCC[C@H](N[C@@H]3CCCC[C@H]3Nc3cc(-c4ccccc4Cl)ccn3)C2)cc1` [Example 248], the EC50 is 0.557 µM. As to `N#Cc1ccc(N2C[C@@H]3C[C@H](N[C@@H]4CCCC[C@H]4Nc4cc(Br)ccn4)[C@H]2C3)cc1` [Example 233], the EC50 came out at 0.196 µM.

For `CS(=O)(=O)Nc1cccc(-c2ccnc(N[C@@H]3CCCC[C@H]3N[C@H]3CCCN(c4ccc(C#N)cc4)C3)c2)c1` [Example 242], the EC50 is 0.003 µM.

Staying with this test, now noted: TABLE 3, R2 is Phenyl-NO2; read-out: hY4 CAMP EC50.
Take `O=[N+]([O-])c1ccc(N2C[C@@H]3C[C@H](N[C@@H]4CCCC[C@H]4Nc4cc(-c5ccc(OC(F)(F)F)cc5)ncn4)[C@H]2C3)cc1` [Example 296]: the EC50 amounted to 0.068 µM. Turning to `N#Cc1cccc(-c2ccnc(N[C@@H]3CCCC[C@H]3N[C@H]3C[C@@H]4C[C@H]3N(c3ccc([N+](=O)[O-])cc3)C4)c2)c1` [Example 293], the EC50 amounted to 0.163 µM.

The same test, now with this note: TABLE 4, R2 is Pyridinyl-CN; read-out: hY4 CAMP EC50.
Consider `C[C@]1(N[C@@H]2CCCC[C@H]2Nc2ncc(-c3cccc(C(N)=O)c3)o2)CCCN(c2ccc(C#N)cn2)C1` [Example 298], for which the EC50 was 0.023 µM. As for `N#Cc1ccc(N2CCCC(N[C@@H]3CCCC[C@H]3Nc3cc(-c4cccc(C(N)=O)c4)ccn3)C2)cn1` (stereo partly shown) [Example 312], the EC50 came out at 0.124 µM. `C[C@]1(N[C@@H]2CCCC[C@H]2Nc2cc(-c3cccc(C(N)=O)c3)ccn2)CCCN(c2ccc(C#N)nc2)C1` [Example 306]: the EC50 worked out at 0.141 µM.

Staying with this test, now noted: TABLE 5, R2 is Pyridinyl-CF3; read-out: hY4 CAMP EC50.
Regarding `C[C@]1(N[C@@H]2CCCC[C@H]2Nc2ncc(-c3cccc(C(N)=O)c3)o2)CCCN(c2ccc(C(F)(F)F)nc2)C1` [Example 322], the half-maximal effective concentration (EC50) was found to be 0.002 µM.

Still in this test, the particulars now being: TABLE 7, R2 is Pyridinyl-oxadiazole-CH3; read-out: hY4 CAMP EC50.
With `COC(=O)Nc1cccc(-c2cnc(N[C@@H]3CCCC[C@H]3N[C@H]3CCCN(c4ccc(-c5noc(C)n5)nc4)C3)o2)c1` [Example 382], the half-maximal effective concentration (EC50) turned out to be 0.001 µM. With `CNC(=O)c1cccc(-c2cnc(N[C@@H]3CCCC[C@H]3N[C@H]3CCCN(c4ccc(-c5noc(C)n5)nc4)C3)o2)c1` [Example 385], the EC50 amounted to 0.009 µM. `Cc1nc(-c2ccc(N3CCC[C@H](N[C@@H]4CCCC[C@H]4Nc4ncc(-c5cccc(C(=O)NCC(C)C)c5)o4)C3)cn2)no1` [Example 386]: the EC50 was 0.243 µM.

The test is the same for the next values; noted with them: human Y4 receptor, cAMP; read-out: hY4 CAMP EC50.
For `Cn1nnnc1-c1ccc(N2CCC[C@H](N[C@@H]3CCCC[C@H]3Nc3cc(-c4cccc(C(N)=O)c4)ccn3)C2)cc1` [Example 508], the EC50 is 0.021 µM. Turning to `Cc1nnc(-c2ccc(N3CCC[C@H](N[C@@H]4CCCC[C@H]4Nc4ncc(-c5cccc(C(N)=O)c5)o4)C3)cc2)o1` [Example 346], the EC50 is 0.306 µM.

Regarding `CNC(=O)c1cccc(-c2cnc(N[C@@H]3CCCC[C@H]3N[C@H]3CCCN(c4cnc(C(F)(F)F)cn4)C3)o2)c1` [Example 429], the EC50 stood at 0.002 µM. The same measure, in the same setting: the figure for `Cc1nc(-c2ccc(N3C[C@@H]4C[C@H](N[C@@H]5CCCC[C@H]5Nc5nccc(-c6ccccc6)n5)[C@H]3C4)cc2)no1` [Example 350] is 0.009 µM.

On to `N#Cc1ncc(N2C[C@@H]3C[C@H](N[C@@H]4CCCC[C@H]4Nc4ncc(-c5cccc(C(N)=O)c5)o4)[C@H]2C3)cn1` [Example 434], for which the EC50 amounted to 0.129 µM. Turning to `O=C(NC1CC1)c1cccc(-c2cnc(N[C@@H]3CCCC[C@H]3N[C@H]3CCCN(c4cnc(C(F)(F)F)nc4)C3)o2)c1` [Example 411], the concentration giving a half-maximal response (EC50) is 0.01 µM. In the case of `Cc1noc(-c2ccc(N3CCC[C@H](N[C@@H]4CCCC[C@H]4Nc4cc(-c5cccc(OC(F)(F)F)c5)ccn4)C3)cc2)n1` [Example 363], the EC50 was 0.314 µM. The same measure, in the same setting: the value for `Cc1nc(-c2ccc(N3CCC[C@H](N[C@@H]4CCCC[C@H]4Nc4cc(-c5cccc(C(N)=O)c5)ccn4)C3)cn2)no1` [Example 378] was 0.004 µM; that for `NC(=O)c1cccc(-c2ccnc(N[C@@H]3CCCC[C@H]3N[C@H]3CCCN(c4ccc(-c5ncon5)cc4)C3)c2)c1` [Example 376] was 0.015 µM; that for `CC(C)(C)OC(=O)Nc1cccc(-c2cnc(N[C@@H]3CCCC[C@H]3N[C@H]3CCCN(c4cnc(C(F)(F)F)nc4)C3)o2)c1` [Example 410] was 0.32 µM.

Staying with this test, now noted: human Y4 stable CHO clonal cells, forskolin + IBMX; read-out: NPY4 cAMP HTRF Agonist Assay EC50.
Turning to `O=[N+]([O-])c1ccc(N2CCC[C@H](N[C@@H]3CCCC[C@H]3Nc3cc(-c4ccc(OC(F)(F)F)cc4)ccn3)C2)cc1` [Example 24, (1R,2R)—N1-((S)-1-(4-Nitrophenyl)piperidin-3-yl)-N2-(4-(4-(trifluoromethoxy)phenyl)pyridin-2-yl)cyclohexane-1,2-diamine], the concentration for a half-maximal effect (EC50) stood at 0.069 µM. As for `O=[N+]([O-])c1ccc(N2CCC[C@H](N[C@@H]3CCCC[C@H]3Nc3ncc(-c4ccc(OC(F)(F)F)cc4)o3)C2)cc1` [Example 1, (1R,2R)—N1-((S)-1-(4-Nitrophenyl)piperidin-3-yl)-N2-(5-(4-(trifluoromethoxy)phenyl)oxazol-2-yl)cyclohexane-1,2-diamine], the half-maximal effective concentration (EC50) was 0.006 µM. In the case of `O=[N+]([O-])c1ccc(N2CCC[C@H](N[C@@H]3CCCC[C@H]3Nc3ncc(-c4ccc(F)c(F)c4)o3)C2)cc1` [Example 10, (1R,2R)—N1-(5-(3,4-Difluorophenyl)oxazol-2-yl)-N2-((S)-1-(4-nitrophenyl)piperidin-3-yl)cyclohexane-1,2-diamine], the EC50 is 0.026 µM. Take `N#Cc1ccc(N2CCC[C@H](N[C@@H]3CCCC[C@H]3Nc3cc(-c4cccc(F)c4)ccn3)C2)cc1` [Example 36, 4-((S)-3-((1R,2R)-2-(4-(3-Fluorophenyl)pyridin-2-ylamino)cyclohexylamino)piperidin-1-yl)benzonitrile tris-trifluoroacetate]: the EC50 is 0.262 µM. On the same count and under the same terms, the value for `N#Cc1ccc(N2CCC[C@H](N[C@@H]3CCCC[C@H]3Nc3nccc(-c4ccccc4)n3)C2)cc1` [Example 60, 4-((S)-3-((1R,2R)-2-(4-Phenylpyrimidin-2-ylamino)cyclohexylamino)piperidin-1-yl)benzonitrile bis-trifluoroacetate] was 0.5 µM. Turning to `O=[N+]([O-])c1ccc(N2CC3CCC2[C@@H](N[C@@H]2CCCC[C@H]2Nc2ncc(-c4ccc(OC(F)(F)F)cc4)o2)C3)cc1` (stereo partly drawn) [Example 17, (1R,2R)—N1-((6S)-2-(4-Nitrophenyl)-2-azabicyclo[2.2.2]octan-6-yl)-N2-(5-(4-(trifluoromethoxy)phenyl)oxazol-2-yl)cyclohexane-1,2-diamine], the EC50 is 0.911 µM. On to `COc1ccc(-c2ccnc(N[C@@H]3CCCC[C@H]3N[C@H]3CCCN(c4ccc(C#N)cc4)C3)n2)cc1` [Example 58, 4-((S)-3-((1R,2R)-2-(4-(4-Methoxyphenyl)pyrimidin-2-ylamino)cyclohexylamino)piperidin-1-yl)benzonitrile trifluoroacetate], for which the EC50 turned out to be 1.17 µM.

On to `N#Cc1ccc(N2CCC[C@H](N[C@@H]3CCCC[C@H]3Nc3ncc(-c4ccccc4)o3)C2)c(F)c1` [Example 51, 3-Fluoro-4-((S)-3-((1R,2R)-2-(5-phenyloxazol-2-ylamino)cyclohexylamino)piperidin-1-yl)benzonitrile], for which the EC50 is 0.548 µM. Still for that read-out and setting: the value for `N#Cc1ccc(N2CCC[C@H](N[C@@H]3CCCC[C@H]3Nc3ncc(-c4ccccc4)s3)C2)cc1` [Example 42, 4-((S)-3-((1R,2R)-2-(5-Phenylthiazol-2-ylamino)cyclohexylamino)piperidin-1-yl)benzonitrile] was 0.045 µM. For `CC(C)(C)C(=O)OCc1ccnc(N[C@@H]2CCCC[C@H]2N[C@H]2CCCN(c3ccc(C#N)cc3)C2)c1` [Example 111, (2-(((1R,2R)-2-(((S)-1-(4-cyanophenyl)piperidin-3-yl)amino)cyclohexyl)amino)pyridin-4-yl)methyl pivalate], the EC50 came to 0.562 µM.

The test is the same for the next values; noted with them: second TABLE 1, R2 is Phenyl-CF3; read-out: hY4 CAMP EC50.
Consider `CCOC(=O)c1cnc(N[C@@H]2CCCC[C@H]2N[C@H]2CCCN(c3ccc(C(F)(F)F)cc3)C2)o1` [Example 184, ethyl 2-(((1R,2R)-2-(((S)-1-(4-(trifluoromethyl)phenyl)piperidin-3-yl)amino)cyclohexyl)amino)oxazole-5-carboxylate], for which the EC50 was found to be 0.764 µM. Consider `C[C@]1(N[C@@H]2CCCC[C@H]2Nc2cc(-c3cccc(C(N)=O)c3)ccn2)CCCN(c2ccc(C(F)(F)F)cc2)C1` [Example 120], for which the EC50 is 0.003 µM. As to `CC(C)(O)Cc1cccc(-c2ccnc(N[C@@H]3CCCC[C@H]3N[C@H]3CCCN(c4ccc(C(F)(F)F)cc4)C3)c2)c1` [Example 189], the EC50 turned out to be 0.027 µM. Consider `CC(C)NC(=O)c1cccc(-c2cnc(N[C@@H]3CCCC[C@H]3N[C@H]3CCCN(c4ccc(C(F)(F)F)cc4)C3)o2)c1` [Example 125], for which the concentration for a half-maximal effect (EC50) is 0.011 µM. `OC1(c2cccc(-c3cnc(N[C@@H]4CCCC[C@H]4N[C@H]4CCCN(c5ccc(C(F)(F)F)cc5)C4)o3)c2)CC1` [Example 154]: the EC50 was determined as 0.036 µM. For the compound `CC(=O)NCc1cccc(-c2ccnc(N[C@@H]3CCCC[C@H]3N[C@H]3CCCN(c4ccc(C(F)(F)F)cc4)C3)c2)c1` [Example 140], the concentration for a half-maximal effect (EC50) is 0.001 µM. `CC(C)(O)c1cccc(-c2cnc(N[C@@H]3CCCC[C@H]3N[C@H]3CCCN(c4ccc(C(F)(F)F)cc4)C3)o2)c1` [Example 170]: the EC50 stood at 0.048 µM.

As to `O=C1OCCN1c1cccc(-c2cnc(N[C@@H]3CCCC[C@H]3N[C@H]3CCCN(c4ccc(C(F)(F)F)cc4)C3)o2)c1` [Example 133], the EC50 was 0.008 µM. `OC1(c2cccc(-c3ccnc(N[C@@H]4CCCC[C@H]4N[C@H]4CCCN(c5ccc(C(F)(F)F)cc5)C4)c3)c2)CC1` [Example 151]: the EC50 was found to be 0.292 µM.

The term EC50 denotes the concentration giving half of the maximal effect.
